For experiment [1], the system named is C57BL/6J mice. Conditions: Hanania et al. 2005; cited from earlier work.
Experiment [2] has as its system mice. The following applies: Hanania et al. 2005, Brody et al. 2003; cited from earlier work.
Experiment [3] has as its target CDK-5/P25 (Homo sapiens, UniProt Q00535). The experiment is described as follows: CDK panel (Reaction Biology). Format: biochemical. The following applies: tested at Reaction Biology, Inc.
Experiment [4] concerns the target CDK-3/cyclinE (Homo sapiens, UniProt Q00526). Conditions: read-out: IC50 (μM) CDK-3/cyclinE; tested at Reaction Biology, Inc.
The target of experiment [5] is CDK-9/cyclinT1 (Homo sapiens, UniProt P50750). The experiment is described as follows: CDK panel (Reaction Biology). Format: biochemical. The following applies: tested at Reaction Biology, Inc.
Experiment [6] concerns the target CDK-1/cyclinB (Homo sapiens, UniProt P06493). The experiment is described as follows: CDK panel (Reaction Biology). Conditions: tested at Reaction Biology, Inc. Format: biochemical.
The target of experiment [7] is CDK-6/cyclinD3 (Homo sapiens, UniProt Q00534). Description: CDK panel (Reaction Biology). In kind it is biochemical. Conditions: tested at Reaction Biology, Inc.
The target of experiment [8] is T1, recombinant human His6-GSK-3β (Homo sapiens, UniProt P49841).
T1 construct: His6; purchased EMD Biosciences
The experiment is described as follows: GSK-3β kinase assay, [γ32P] transfer to primed glycogen synthase peptide.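 Note: phosphate incorporation quantified by liquid scintillation counting of the filters.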 Format: biochemical. Conditions: 10 μM ATP; 10 μM pGSM peptide; 30 minutes at 30° C.; read-out: IC50 (nM), GSK-3β inhibition.

The target of experiment [9] is CDK-2/cyclinA (Homo sapiens, UniProt P24941). Description: CDK panel (Reaction Biology). Format: biochemical. Conditions: tested at Reaction Biology, Inc.
Experiment [10] concerns the target CDK-2/cyclinE (Homo sapiens, UniProt P24941). Description: CDK-2/CyclinE inhibition (Reaction Biology). Format: biochemical. The following applies: tested at Reaction Biology, Inc.
In experiment [11] the target is CDK-4/cyclinD1 (Homo sapiens, UniProt P11802). Description: CDK panel (Reaction Biology). The following applies: tested at Reaction Biology, Inc. In kind it is biochemical.
Experiment [12] has as its target CDK-5/P35 (Homo sapiens, UniProt Q00535). The experiment is described as follows: CDK panel (Reaction Biology). The following applies: tested at Reaction Biology, Inc. In kind it is biochemical.

Chain of CDK-6/cyclinD3 (Q00534 whole entry, species assumed): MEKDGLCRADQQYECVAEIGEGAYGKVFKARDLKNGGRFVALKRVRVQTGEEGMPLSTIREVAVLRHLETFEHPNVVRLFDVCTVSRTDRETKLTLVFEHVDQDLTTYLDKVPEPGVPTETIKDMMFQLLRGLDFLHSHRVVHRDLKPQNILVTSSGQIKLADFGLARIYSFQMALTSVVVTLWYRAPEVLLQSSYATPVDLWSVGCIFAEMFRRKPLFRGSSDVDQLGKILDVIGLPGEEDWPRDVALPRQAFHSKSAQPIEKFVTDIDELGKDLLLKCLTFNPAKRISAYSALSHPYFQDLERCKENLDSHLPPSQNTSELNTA
Chain of CDK-6/cyclinD3 (P30281 whole entry partner, species assumed): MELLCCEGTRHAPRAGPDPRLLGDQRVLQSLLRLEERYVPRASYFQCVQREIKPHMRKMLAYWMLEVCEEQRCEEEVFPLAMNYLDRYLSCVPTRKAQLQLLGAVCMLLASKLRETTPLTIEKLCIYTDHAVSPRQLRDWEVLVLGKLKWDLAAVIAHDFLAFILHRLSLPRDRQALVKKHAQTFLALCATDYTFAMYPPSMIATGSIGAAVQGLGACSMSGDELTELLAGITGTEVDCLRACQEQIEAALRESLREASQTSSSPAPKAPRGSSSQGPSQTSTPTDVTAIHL
Chain of CDK-1/cyclinB (P06493 whole entry, species assumed): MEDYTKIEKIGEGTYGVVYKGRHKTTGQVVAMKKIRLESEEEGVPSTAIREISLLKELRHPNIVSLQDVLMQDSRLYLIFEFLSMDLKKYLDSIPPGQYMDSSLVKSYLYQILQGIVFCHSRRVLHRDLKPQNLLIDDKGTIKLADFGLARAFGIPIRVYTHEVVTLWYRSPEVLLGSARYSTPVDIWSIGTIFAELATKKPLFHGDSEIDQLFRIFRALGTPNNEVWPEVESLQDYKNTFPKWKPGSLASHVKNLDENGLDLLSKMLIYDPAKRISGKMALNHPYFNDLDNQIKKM
Chain of CDK-1/cyclinB (P14635 whole entry partner, species assumed): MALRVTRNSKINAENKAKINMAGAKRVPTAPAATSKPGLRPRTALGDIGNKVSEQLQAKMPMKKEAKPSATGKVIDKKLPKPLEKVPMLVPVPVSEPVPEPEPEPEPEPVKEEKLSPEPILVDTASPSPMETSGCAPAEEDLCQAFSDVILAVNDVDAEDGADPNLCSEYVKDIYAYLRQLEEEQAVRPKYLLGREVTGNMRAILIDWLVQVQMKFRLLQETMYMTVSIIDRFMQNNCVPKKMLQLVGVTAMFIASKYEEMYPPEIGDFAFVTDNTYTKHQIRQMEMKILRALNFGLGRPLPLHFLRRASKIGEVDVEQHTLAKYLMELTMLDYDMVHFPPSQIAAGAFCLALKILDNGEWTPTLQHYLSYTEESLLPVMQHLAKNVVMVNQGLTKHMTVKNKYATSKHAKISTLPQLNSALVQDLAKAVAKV
Chain of CDK-4/cyclinD1 (P11802 whole entry, species assumed): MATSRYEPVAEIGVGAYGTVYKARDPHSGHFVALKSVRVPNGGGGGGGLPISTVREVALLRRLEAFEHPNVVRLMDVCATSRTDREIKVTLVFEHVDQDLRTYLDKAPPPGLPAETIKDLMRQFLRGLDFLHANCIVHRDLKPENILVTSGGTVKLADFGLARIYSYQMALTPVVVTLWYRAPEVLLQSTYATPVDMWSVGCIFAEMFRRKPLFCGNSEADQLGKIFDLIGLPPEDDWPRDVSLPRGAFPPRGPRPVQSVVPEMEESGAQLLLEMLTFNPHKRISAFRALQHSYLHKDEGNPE
Chain of CDK-4/cyclinD1 (P24385 whole entry partner, species assumed): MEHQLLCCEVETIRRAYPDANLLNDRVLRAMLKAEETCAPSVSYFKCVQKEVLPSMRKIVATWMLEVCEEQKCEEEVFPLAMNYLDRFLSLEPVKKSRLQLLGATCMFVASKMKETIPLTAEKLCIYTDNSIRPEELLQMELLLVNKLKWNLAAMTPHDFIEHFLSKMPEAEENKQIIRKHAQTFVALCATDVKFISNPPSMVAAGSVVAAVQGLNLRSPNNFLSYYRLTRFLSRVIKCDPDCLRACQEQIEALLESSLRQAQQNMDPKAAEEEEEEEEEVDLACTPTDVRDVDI
T1 sequence (P49841 whole entry): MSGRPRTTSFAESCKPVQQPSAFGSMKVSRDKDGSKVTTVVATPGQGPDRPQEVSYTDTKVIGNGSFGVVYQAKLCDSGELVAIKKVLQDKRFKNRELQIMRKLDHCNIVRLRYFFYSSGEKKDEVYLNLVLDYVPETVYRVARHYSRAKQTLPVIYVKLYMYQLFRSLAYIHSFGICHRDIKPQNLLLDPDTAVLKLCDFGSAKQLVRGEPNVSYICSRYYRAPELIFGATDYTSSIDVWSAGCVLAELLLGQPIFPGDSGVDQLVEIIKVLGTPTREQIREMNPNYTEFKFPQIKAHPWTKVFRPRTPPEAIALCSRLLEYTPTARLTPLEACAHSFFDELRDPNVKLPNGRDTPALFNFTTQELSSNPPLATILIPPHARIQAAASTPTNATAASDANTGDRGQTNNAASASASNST
Chain of CDK-9/cyclinT1 (P50750 whole entry, species assumed): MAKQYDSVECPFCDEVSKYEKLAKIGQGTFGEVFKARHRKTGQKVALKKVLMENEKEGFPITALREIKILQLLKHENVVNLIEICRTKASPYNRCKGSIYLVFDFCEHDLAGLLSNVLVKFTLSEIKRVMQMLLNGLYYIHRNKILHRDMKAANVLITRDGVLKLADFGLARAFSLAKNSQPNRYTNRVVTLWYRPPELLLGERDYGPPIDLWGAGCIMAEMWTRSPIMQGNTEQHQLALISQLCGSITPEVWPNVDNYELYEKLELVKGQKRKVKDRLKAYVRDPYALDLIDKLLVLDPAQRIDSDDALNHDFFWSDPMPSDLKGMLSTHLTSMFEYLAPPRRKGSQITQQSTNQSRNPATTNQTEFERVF
Chain of CDK-9/cyclinT1 (O60563 whole entry partner, species assumed): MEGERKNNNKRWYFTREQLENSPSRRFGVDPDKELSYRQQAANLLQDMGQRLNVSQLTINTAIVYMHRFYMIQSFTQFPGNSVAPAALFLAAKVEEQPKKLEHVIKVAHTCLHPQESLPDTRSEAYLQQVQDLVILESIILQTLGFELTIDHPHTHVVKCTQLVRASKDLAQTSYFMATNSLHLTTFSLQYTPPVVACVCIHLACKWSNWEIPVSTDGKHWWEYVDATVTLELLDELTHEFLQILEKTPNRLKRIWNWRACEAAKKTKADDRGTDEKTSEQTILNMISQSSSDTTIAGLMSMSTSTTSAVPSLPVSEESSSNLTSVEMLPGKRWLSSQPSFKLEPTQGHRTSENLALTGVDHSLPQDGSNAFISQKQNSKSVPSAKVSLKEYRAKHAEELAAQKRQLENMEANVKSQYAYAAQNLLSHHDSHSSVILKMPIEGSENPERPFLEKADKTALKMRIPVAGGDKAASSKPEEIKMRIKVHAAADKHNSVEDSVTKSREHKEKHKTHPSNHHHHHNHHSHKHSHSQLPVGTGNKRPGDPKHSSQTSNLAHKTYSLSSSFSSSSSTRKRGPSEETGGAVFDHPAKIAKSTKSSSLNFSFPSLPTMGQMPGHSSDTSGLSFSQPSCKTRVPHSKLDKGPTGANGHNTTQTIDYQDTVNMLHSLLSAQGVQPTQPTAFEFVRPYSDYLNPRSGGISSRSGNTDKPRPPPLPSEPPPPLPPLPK
Chain of CDK-5/P25 (Q00535 whole entry, species assumed): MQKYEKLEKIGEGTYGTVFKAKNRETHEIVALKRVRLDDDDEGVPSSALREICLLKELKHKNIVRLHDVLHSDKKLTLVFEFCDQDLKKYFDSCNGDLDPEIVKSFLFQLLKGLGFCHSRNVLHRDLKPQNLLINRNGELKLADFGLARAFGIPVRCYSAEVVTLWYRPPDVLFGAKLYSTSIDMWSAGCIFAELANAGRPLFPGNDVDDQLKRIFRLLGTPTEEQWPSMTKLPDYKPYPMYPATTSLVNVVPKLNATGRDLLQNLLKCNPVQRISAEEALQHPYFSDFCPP
Chain of CDK-5/P25 (Q15078 99-307 partner limits assumed, species assumed): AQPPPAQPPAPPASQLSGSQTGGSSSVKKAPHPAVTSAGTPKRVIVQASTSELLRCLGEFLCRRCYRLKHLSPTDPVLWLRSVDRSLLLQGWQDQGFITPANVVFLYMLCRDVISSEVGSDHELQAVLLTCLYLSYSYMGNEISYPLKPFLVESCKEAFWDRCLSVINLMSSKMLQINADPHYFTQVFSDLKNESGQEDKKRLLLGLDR
Chain of CDK-5/P35 (Q00535 whole entry, species assumed): as the sequence (Q00535 whole entry, species assumed) above
Chain of CDK-5/P35 (Q15078 2-307 partner limits assumed, species assumed): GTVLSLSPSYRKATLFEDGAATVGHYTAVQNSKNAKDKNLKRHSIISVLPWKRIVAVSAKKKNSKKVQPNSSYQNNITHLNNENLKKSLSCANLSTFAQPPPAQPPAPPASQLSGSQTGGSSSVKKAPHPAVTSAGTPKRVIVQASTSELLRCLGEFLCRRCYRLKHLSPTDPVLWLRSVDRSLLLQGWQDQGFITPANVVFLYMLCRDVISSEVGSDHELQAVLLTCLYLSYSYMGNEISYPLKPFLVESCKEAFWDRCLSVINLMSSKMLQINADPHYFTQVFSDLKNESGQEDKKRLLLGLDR

For `Nc1nnc(-c2cccc(Cl)c2Cl)c(N)n1` [lamotrigine], the “Block of CDP + amphetamine hyperactivity by mood stabilizers” value in experiment [1] was “blocked”. In experiment [2], the “Sensorimotor gating (prepulse inhibition)” value is reported as “improve sensorimotor gating”.

In the case of `COCc1cccc2c(C3=C(c4coc5ccccc45)C(=O)NC3=O)cn(C)c12` [Compound 52, 3-Benzofuran-3-yl-4-(7-methoxymethyl-1-methyl-1H-indol-3-yl)-pyrrole-2,5-dione], the IC50 in experiment [3] is 12.9 µM; in experiment [4] it was 17.7 µM; in experiment [5], 16 µM; in [6] it was 8.53 µM; in experiment [7], 8.33 µM; in experiment [8], 0.23 ± 0.04 nM. Moreover, the IC50 in [9] is 4.09 µM; in experiment [10], 3880 nM; in [11], 8.62 µM; in experiment [12], 12.7 µM.

For `Cn1cc(C2=C(c3coc4cc(CO)ccc34)C(=O)NC2=O)c2cc(F)c(Cl)cc21` [Compound 13, 3-(6-Chloro-5-fluoro-1-methyl-1H-indol-3-yl)-4-(6-hydroxymethyl-benzofuran-3-yl)-pyrrole-2,5-dione], the IC50 was found to be 25.1 µM in [4]; 5.4 µM in [5]; 13.4 µM in [6]; 11.6 µM in experiment [7]; 0.95 ± 0.19 nM in experiment [8]; 10.6 µM in experiment [9]. Also, the IC50 in experiment [10] was 11700 nM; in experiment [11], 18.3 µM.

The record behind these values is patent US8207216B2, “Benzofuran-3-yl(indol-3-yl) maleimides as potent GSK3 inhibitors” (The Board of Trustees of the University of Illinois, priority 2006, dated 2012).
